Measured values reported in the supplement of paper PMC11451515.

Tested on: SEM cells
Assay: cell viability relative to DMSO control; higher = less cytotoxic
Conditions: 48 h
Method in brief: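 Cells were incubated for 48 h at 37°C before CellTiter-Glo One luminescence was read. The cells were NOMO1 or SEM (500 cells/well) or P12-Ichikawa (1000 cells/well) leukemia cells, adapted for at least four passages in each medium and seeded in 1536-well plates (5 μl). Dosing used library compounds in DMSO applied by pin over 11 threefold points, 47 μM to 0.79 nM. Viability is the per-plate percentage of DMSO wells, with cell-free wells as background.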

[1] = HPLM + 10% dialyzed FBS, 0.000781 µM
[2] = HPLM + 10% dialyzed FBS, 0.00234 µM
[3] = HPLM + 10% dialyzed FBS, 0.00702 µM
[4] = HPLM + 10% dialyzed FBS, 0.0211 µM
[5] = HPLM + 10% dialyzed FBS, 0.0632 µM
[6] = HPLM + 10% dialyzed FBS, 0.19 µM
[7] = HPLM + 10% dialyzed FBS, 0.569 µM
[8] = HPLM + 10% dialyzed FBS, 1.71 µM
[9] = HPLM + 10% dialyzed FBS, 5.12 µM
[10] = HPLM + 10% dialyzed FBS, 15.4 µM
[11] = HPLM + 10% dialyzed FBS, 46.1 µM
[12] = RPMI 5 mM glucose + 10% FBS, 0.000781 µM
[13] = RPMI 5 mM glucose + 10% FBS, 0.00234 µM
[14] = RPMI 5 mM glucose + 10% FBS, 0.00702 µM
[15] = RPMI 5 mM glucose + 10% FBS, 0.0211 µM
[16] = RPMI 5 mM glucose + 10% FBS, 0.0632 µM
[17] = RPMI 5 mM glucose + 10% FBS, 0.19 µM
[18] = RPMI 5 mM glucose + 10% FBS, 0.569 µM
[19] = RPMI 5 mM glucose + 10% FBS, 1.71 µM
[20] = RPMI 5 mM glucose + 10% FBS, 5.12 µM
[21] = RPMI 5 mM glucose + 10% FBS, 15.4 µM
[22] = RPMI 5 mM glucose + 10% FBS, 46.1 µM
[23] = RPMI 5 mM glucose + 10% dialyzed FBS, 0.000781 µM
[24] = RPMI 5 mM glucose + 10% dialyzed FBS, 0.00234 µM
[25] = RPMI 5 mM glucose + 10% dialyzed FBS, 0.00702 µM
[26] = RPMI 5 mM glucose + 10% dialyzed FBS, 0.0211 µM
[27] = RPMI 5 mM glucose + 10% dialyzed FBS, 0.0632 µM
[28] = RPMI 5 mM glucose + 10% dialyzed FBS, 0.19 µM
[29] = RPMI 5 mM glucose + 10% dialyzed FBS, 0.569 µM
[30] = RPMI 5 mM glucose + 10% dialyzed FBS, 1.71 µM
[31] = RPMI 5 mM glucose + 10% dialyzed FBS, 5.12 µM
[32] = RPMI 5 mM glucose + 10% dialyzed FBS, 15.4 µM
[33] = RPMI 5 mM glucose + 10% dialyzed FBS, 46.1 µM

Row | Structure (SMILES) | cell viability [1] [%] | cell viability [2] [%] | cell viability [3] [%] | cell viability [4] [%] | cell viability [5] [%] | cell viability [6] [%] | cell viability [7] [%] | cell viability [8] [%] | cell viability [9] [%] | cell viability [10] [%] | cell viability [11] [%] | cell viability [12] [%] | cell viability [13] [%] | cell viability [14] [%] | cell viability [15] [%] | cell viability [16] [%] | cell viability [17] [%] | cell viability [18] [%] | cell viability [19] [%] | cell viability [20] [%] | cell viability [21] [%] | cell viability [22] [%] | cell viability [23] [%] | cell viability [24] [%] | cell viability [25] [%] | cell viability [26] [%] | cell viability [27] [%] | cell viability [28] [%] | cell viability [29] [%] | cell viability [30] [%] | cell viability [31] [%] | cell viability [32] [%] | cell viability [33] [%]
1 | OC[C@H]1O[C@@H](Oc2cc(O)cc(/C=C/c3ccc(O)cc3)c2)[C@H](O)[C@@H](O)[C@@H]1O | 71.9 | 89.5 | 97.3 | 105 | 101 | 108 | 108 | 108 | 95.4 | 116 | 115 | 79.3 | 102 | 89.7 | 104 | 97.4 | 110 | 85.7 | 102 | 117 | 119 | 104 | 86.2 | 104 | 94 | 102 | 93.2 | 104 | 102 | 119 | 114 | 117 | 114
2 | N#C/N=C(\NCCCCCCOc1ccc(Cl)cc1)Nc1ccncc1 | 18.5 | 14.6 | 11.7 | 11.6 | 10.7 | 9.6 | 9.68 | 8.04 | 7.4 | 6.52 | 4.48 | 11 | 12.1 | 9.46 | 9.27 | 8.63 | 8.09 | 6.61 | 4.33 | 4.15 | 3.83 | 1.91 | 15 | 11 | 9.5 | 8.99 | 8.27 | 8.14 | 7.35 | 6.51 | 5.93 | 4.36 | 2.76
3 | N[S+](=O)([O-])OC[C@@H]1C[C@@H](n2ccc3c(N[C@H]4CCc5ccccc54)ncnc32)C[C@@H]1O | 96.3 | 98.3 | 104 | 94.2 | 105 | 122 | 101 | 53.1 | 27.8 | 14.2 | 7.9 | 101 | 121 | 119 | 101 | 101 | 117 | 113 | 48.4 | 24.5 | 10.3 | 8.49 | 90.8 | 95.4 | 95.7 | 92.1 | 97.3 | 111 | 103 | 35.8 | 23.8 | 12.1 | 8.74
4 | C[C@](N)(Cc1ccc(O)c(O)c1)C(=O)O | 83.9 | 85.7 | 94.4 | 86.3 | 102 | 92.5 | 84.1 | 81.7 | 83 | 74.8 | 6.26 | 94.7 | 106 | 100 | 111 | 103 | 81.6 | 69.2 | 93.5 | 86.2 | 72.9 | 3.7 | 103 | 93.7 | 95.9 | 111 | 97.8 | 91.1 | 98.5 | 96.1 | 88.2 | 77.4 | 4.47
5 | CCOC(=O)Nc1ccc(NCc2ccc(F)cc2)nc1N | 111 | 104 | 119 | 102 | 105 | 117 | 94.9 | 114 | 99.9 | 115 | 101 | 117 | 121 | 119 | 117 | 125 | 118 | 118 | 116 | 109 | 116 | 65.3 | 115 | 98.9 | 120 | 128 | 131 | 128 | 138 | 113 | 104 | 115 | 80.2
6 | Cc1cccc(/C=N/Nc2cc(N3CCOCC3)nc(OCCc3ccccn3)n2)c1 | 99.3 | 93.8 | 102 | 100 | 111 | 87 | 104 | 72.8 | 82.7 | 52.9 | 31.8 | 97.8 | 98.9 | 106 | 109 | 105 | 96.1 | 95.4 | 85.9 | 66.9 | 34.9 | 13.4 | 104 | 100 | 101 | 96.8 | 90.3 | 81.3 | 70.8 | 73.8 | 54.9 | 35.3 | 7.57
7 | CCN1CCCC1CNC(=O)c1cc([S+](N)(=O)[O-])ccc1OC (stereo unspecified) | 90 | 88.7 | 97.6 | 87.3 | 102 | 90.1 | 102 | 107 | 108 | 69.1 | 102 | 96.8 | 102 | 112 | 92.4 | 105 | 111 | 106 | 112 | 102 | 66 | 97.8 | 102 | 91.6 | 110 | 113 | 118 | 122 | 107 | 123 | 133 | 59.1 | 121
8 | CC(C)Oc1ccc(C(=O)N[C@H](CNC(=O)CN(C)C)Cc2ccc(-c3cn4cccc([C@H](C)O)c4n3)cc2)cc1Cl | 116 | 129 | 112 | 109 | 118 | 118 | 102 | 44.5 | 33.5 | 39.9 | 48.5 | – | – | – | – | – | – | – | – | – | – | – | 117 | 119 | 117 | 125 | 111 | 111 | 111 | 38.2 | 34.4 | 29.4 | 35.5
9 | CNC(=O)C1=CC=C(C)C(=C1)N2C(=C/C(=C(/Br)C2=O)OCC3=C(F)C=C(F)C=C3)\C | 109 | 116 | 123 | 106 | 126 | 123 | 131 | 130 | 125 | 124 | 120 | 110 | 127 | 124 | 122 | 124 | 116 | 131 | 139 | 116 | 113 | 101 | 115 | 118 | 136 | 136 | 134 | 155 | 148 | 131 | 109 | 120 | 103
10 | COc1cc(N2CCC(N(C)C)CC2)ccc1Nc1ncc(Cl)c(Nc2ccccc2P(C)(C)=O)n1 | 117 | 112 | 116 | 114 | 110 | 82.3 | 51 | 28.3 | 17.7 | 11.9 | 5.99 | 114 | 105 | 114 | 109 | 128 | 95.4 | 57.8 | 18.2 | 8.88 | 6.45 | 4.89 | – | – | – | – | – | – | – | – | – | – | –
11 | COC1=CC=C2/C3=N/CCN3\C(=N/C2=C1OC)NC(=O)C4=CC=CN=C4 | 98.5 | 98.2 | 106 | 96.8 | 101 | 104 | 96.7 | 103 | 87.1 | 82.5 | 64.1 | 91.6 | 94.4 | 99.7 | 89.5 | 99.5 | 79.4 | 85.2 | 99.6 | 76.6 | 80.6 | 55.7 | 122 | 111 | 111 | 103 | 117 | 113 | 99 | 92.9 | 84 | 81.1 | 69.2
12 | O=c1[nH]c(=O)n(C2CCCO2)cc1F (stereo unspecified) | 92.4 | 124 | 105 | 119 | 122 | 127 | 92.5 | 111 | 90.2 | 104 | 99.1 | 123 | 120 | 109 | 126 | 115 | 110 | 127 | 114 | 123 | 122 | 104 | 70.2 | 110 | 109 | 117 | 99.7 | 115 | 108 | 109 | 102 | 104 | 97.8
13 | COC(=O)\C1=C\CCN(C)C1 | 113 | 109 | 106 | 113 | 102 | 117 | 103 | 105 | 109 | 114 | 106 | 107 | 103 | 106 | 109 | 104 | 111 | 111 | 110 | 98.8 | 99.8 | 110 | 101 | 111 | 109 | 115 | 127 | 106 | 114 | 124 | 110 | 106 | 105
14 | CC(C)(O)/C=C\C(=O)[C@](C)(O)[C@H]1[C@H](O)C[C@]2(C)[C@@H]3CC=C4[C@@H](C=C(O)C(=O)C4(C)C)[C@]3(C)C(=O)C[C@@]12C | 92.4 | 91.3 | 119 | 100 | 51.8 | 24 | 24 | 21.7 | 20.4 | 6.86 | 4.91 | 97.5 | 85.7 | 109 | 101 | 35 | 15.8 | 13.7 | 11 | 11.9 | 6.54 | 5.36 | 104 | 78.7 | 103 | 108 | 55.6 | 17.5 | 14.2 | 12.8 | 12.5 | 6.59 | 5.46
15 | CC(C)(C)[C@H](NC(=O)c1ccc(N)c(Cl)c1)C(=O)N1CCC[C@H]1C(=O)N[C@H](C#N)CC(=O)O | 99.5 | 105 | 109 | 129 | 127 | 125 | 113 | 113 | 123 | 140 | 130 | 107 | 107 | 129 | 118 | 118 | 124 | 115 | 120 | 100 | 134 | 110 | 116 | 101 | 117 | 111 | 117 | 116 | 117 | 118 | 117 | 123 | 125
16 | CC(C)[C@H](N)C(=O)OCCOC[N]1C=NC2=C1\N=C(N)/NC2=O | 92.4 | 101 | 119 | 127 | 121 | 117 | 119 | 116 | 103 | 115 | 107 | 80.4 | 85.4 | 104 | 109 | 116 | 95.3 | 102 | 90.5 | 92.7 | 98.7 | 78 | 107 | 112 | 126 | 134 | 122 | 123 | 126 | 166 | 112 | 133 | 99
